Reference: ChEMBL document CHEMBL2413038, “Synthesis and bioevaluation of novel 4-aminoquinoline-tetrazole derivatives as potent antimalarial agents” (Eur J Med Chem, 2013)
≈ marks a conversion by molar mass, not a printed value. Calls of active or inactive are those of the source. The calls are words filed in the database; no cut-off is given here.

What was measured:
Plasmodium falciparum [1] = test: Resistance index, ratio of IC50 for chloroquine-resistant Plasmodium falciparum K1 to IC50 for chloroquine-sensitive Plasmodium falciparum 3D7; type: functional
Plasma = test: Inhibition of beta-hematin formation in Plasmodium yoelii-infected Swiss albino mouse plasma using hemin as substrate after 16 hrs; type: functional, cell-free
[2] = Selectivity index, ratio of CC50 for African green monkey Vero cells to IC50 for Plasmodium falciparum; type: functional
Plasmodium falciparum [3] = test: Antimalarial activity against chloroquine-sensitive Plasmodium falciparum 3D7 after 72 hrs by MSF assay; type: functional, organism-based; details: 3D7, 72 h
Plasmodium falciparum [4] = test: Antimalarial activity against chloroquine-resistant Plasmodium falciparum K1 after 72 hrs by MSF assay; type: functional, organism-based; details: K1, 72 h
Plasmodium yoelii [5] = test: Antimalarial activity against chloroquine-resistant Plasmodium yoelii N-67 infected in Swiss mouse assessed as suppression of parasitaemia level at 50 mg/kg, ip qd for 4 days relative to control; type: functional; details: route intraperitoneal
Plasmodium yoelii [6] = test: Antimalarial activity against chloroquine-resistant Plasmodium yoelii N-67 infected in Swiss mouse assessed as mouse survival at 50 mg/kg, ip qd for 4 days measured on day 28 post infection relative to control; type: functional
Plasmodium yoelii [7] = test: Antimalarial activity against chloroquine-resistant Plasmodium yoelii N-67 infected in Swiss mouse assessed as mean survival time at 50 mg/kg, ip qd for 4 days; type: functional; details: route intraperitoneal
Plasmodium yoelii [8] = test: Antimalarial activity against chloroquine-resistant Plasmodium yoelii N-67 infected in Swiss mouse assessed as cured animal at 50 mg/kg, ip qd for 4 days measured on day 28 post infection relative to control; type: functional
[9] = Clearance in Sprague-Dawley rat at 10 mg/kg, po; type: ADME, organism-based; set-up: dose 10 mg/kg, route oral; details: in vivo
Rattus norvegicus [10] = test: Volume of distribution in Sprague-Dawley rat at 10 mg/kg, po; type: ADME, organism-based; set-up: dose 10 mg/kg, route oral; details: in vivo
[11] = Cmax in Sprague-Dawley rat at 10 mg/kg, po; type: ADME, organism-based; set-up: dose 10 mg/kg, route oral; details: in vivo
Plasmodium yoelii [12] = test: Antimalarial activity against chloroquine-resistant Plasmodium yoelii N-67 infected in Swiss mouse assessed as mean survival time at 100 mg/kg, po qd for 4 days; type: functional
Plasmodium yoelii [13] = test: Antimalarial activity against chloroquine-resistant Plasmodium yoelii N-67 infected in Swiss mouse assessed as suppression of parasitaemia level at 100 mg/kg, po qd for 4 days relative to control; type: functional
[14] = AUC (0 to t) in Sprague-Dawley rat at 10 mg/kg, po; type: ADME, organism-based; set-up: dose 10 mg/kg, route oral; details: plasma
[15] = Elimination half life in Sprague-Dawley rat at 10 mg/kg, po; type: ADME, organism-based; set-up: dose 10 mg/kg, route oral; details: in vivo, read-out: beta t1/2 (converted)
[16] = Tmax in Sprague-Dawley rat at 10 mg/kg, po; type: ADME, organism-based; set-up: dose 10 mg/kg, route oral; details: in vivo
Plasmodium yoelii [17] = test: Antimalarial activity against chloroquine-resistant Plasmodium yoelii N-67 infected in Swiss mouse assessed as mouse survival at 100 mg/kg, po qd for 4 days measured on day 28 post infection relative to control; type: functional
Plasmodium yoelii [18] = test: Antimalarial activity against chloroquine-resistant Plasmodium yoelii N-67 infected in Swiss mouse assessed as cured animal at 100 mg/kg, po for 4 days measured on day 28 post infection relative to control; type: functional
Plasmodium yoelii [19] = test: Antimalarial activity against chloroquine-resistant Plasmodium yoelii N-67 infected in Swiss mouse assessed as cured animal at 10 mg/kg, po for 4 days measured on day 28 post infection; type: functional, organism-based; set-up: dose 10 mg/kg
Rattus norvegicus [20] = test: Tmax in Sprague-Dawley rat at 5 mg/kg, po; type: ADME, organism-based; set-up: dose 5 mg/kg, route oral; details: in vivo
Rattus norvegicus [21] = test: Elimination half life in Sprague-Dawley rat at 5 mg/kg, po; type: ADME, organism-based; set-up: dose 5 mg/kg, route oral; details: in vivo
Rattus norvegicus [22] = test: AUC (0 to t) in Sprague-Dawley rat at 5 mg/kg, po; type: ADME, organism-based, Plasma; set-up: dose 5 mg/kg, route oral; details: in vivo
Rattus norvegicus [23] = test: Volume of distribution in Sprague-Dawley rat at 5 mg/kg, po; type: ADME, organism-based; set-up: dose 5 mg/kg, route oral; details: in vivo
Plasmodium yoelii [24] = test: Antimalarial activity against chloroquine-resistant Plasmodium yoelii N-67 infected in Swiss mouse assessed as mean survival time at 10 mg/kg, po for 4 days; type: functional
Plasmodium yoelii [25] = test: Antimalarial activity against chloroquine-resistant Plasmodium yoelii N-67 infected in Swiss mouse assessed as mouse survival at 10 mg/kg, ip qd for 4 days measured on day 28 post infection; type: functional, organism-based; set-up: dose 10 mg/kg
[26] = Clearance in Sprague-Dawley rat at 5 mg/kg, po; type: ADME, organism-based; set-up: dose 5 mg/kg, route oral; details: in vivo
Plasmodium falciparum [27] = test: Ratio of chloroquine IC50 to compound IC50 for chloroquine-resistant Plasmodium falciparum K1; type: functional

CC(C)(C)n1nnnc1C(NCCNc1ccnc2cc(Cl)ccc12)c1cccc2ccccc12 (stereo not given)
Ratio IC50 (Plasmodium falciparum [1]): 1.5 | IC50 (Plasma): 6.33 µg/mL (≈ 13 µM) | inhibition (Plasma): Dose-dependent effect | Ratio CC50/IC50 [2]: 305.32 | IC50 (Plasmodium falciparum [3]): 120 nM | IC50 (Plasmodium falciparum [4]): 184 nM

CC(C)(C)n1nnnc1C(c1ccc(Cl)cc1)N1CCN(c2ccnc3cc(Cl)ccc23)CC1 (stereo not given)
Ratio IC50 (Plasmodium falciparum [1]): 0.2 | IC50 (Plasma): 5.32 µg/mL (≈ 10.7 µM) | inhibition (Plasma): Dose-dependent effect | Activity (Plasmodium yoelii [5]): 73.91% | Ratio CC50/IC50 [2]: 182.96 | Activity (Plasmodium yoelii [6]): inactive | MST (Plasmodium yoelii [7]): 13 days | IC50 (Plasmodium falciparum [3]): 787 nM | Activity (Plasmodium yoelii [8]): inactive | IC50 (Plasmodium falciparum [4]): 159 nM

COc1ccc(C(Nc2ccc(Nc3ccnc4cc(Cl)ccc34)cc2)c2nnnn2C(C)(C)C)cc1 (stereo not given)
Ratio IC50 (Plasmodium falciparum [1]): 6.6 | IC50 (Plasma): 5.55 µg/mL (≈ 10.8 µM) | inhibition (Plasma): Dose-dependent effect | Ratio CC50/IC50 [2]: 702.34 | IC50 (Plasmodium falciparum [3]): 57.7 nM | IC50 (Plasmodium falciparum [4]): 384 nM

Clc1ccc(C(Nc2ccc(Nc3ccnc4cc(Cl)ccc34)cc2)c2nnnn2C2CCCCC2)cc1 (stereo not given)
Ratio IC50 (Plasmodium falciparum [1]): 0.9 | IC50 (Plasma): 3.81 µg/mL (≈ 7 µM) | inhibition (Plasma): Dose-dependent effect | Activity (Plasmodium yoelii [5]): 20.43% | Ratio CC50/IC50 [2]: 694.18 | Activity (Plasmodium yoelii [6]): inactive | MST (Plasmodium yoelii [7]): 10.4 days | IC50 (Plasmodium falciparum [3]): 156 nM | Activity (Plasmodium yoelii [8]): inactive | IC50 (Plasmodium falciparum [4]): 139 nM

CC(C)(C)n1nnnc1C(Nc1ccc(Nc2ccnc3cc(Cl)ccc23)cc1)c1ccc(Br)cc1 (stereo not given)
CL/F [9]: 32.3 mL/min | Ratio IC50 (Plasmodium falciparum [1]): 19.8 | Vd (Rattus norvegicus [10]): 63.38 L | Cmax [11]: 44.4 ng/mL | MST (Plasmodium yoelii [12]): 25.6 days | Activity (Plasmodium yoelii [13]): 99.99% | AUC(0-t) [14]: 704 ng·h/mL | IC50 (Plasma): 5.65 µg/mL (≈ 10 µM) | inhibition (Plasma): Dose-dependent effect | Activity (Plasmodium yoelii [5]): 99.99% | Ratio CC50/IC50 [2]: 2332.43 | half-life [15]: 22.6 h | Activity (Plasmodium yoelii [6]; route intraperitoneal): 80% | MST (Plasmodium yoelii [7]): 26 days | IC50 (Plasmodium falciparum [3]): 11.8 nM | Activity (Plasmodium yoelii [8]; route intraperitoneal): 60% | Tmax [16]: 1.5 h | Activity (Plasmodium yoelii [17]): 60% | Activity (Plasmodium yoelii [18]): 40% | IC50 (Plasmodium falciparum [4]): 234 nM

CC(C)(C)n1nnnc1C(Nc1ccc(Nc2ccnc3cc(Cl)ccc23)cc1)c1ccc(F)cc1 (stereo not given)
Ratio IC50 (Plasmodium falciparum [1]): 22.67 | IC50 (Plasma): 5.49 µg/mL (≈ 10.9 µM) | inhibition (Plasma): Dose-dependent effect | Ratio CC50/IC50 [2]: 3165.31 | IC50 (Plasmodium falciparum [3]): 29.5 nM | IC50 (Plasmodium falciparum [4]): 669 nM

CCN(CC)CCCC(C)Nc1ccnc2cc(Cl)ccc12 (stereo not given) [CHLOROQUINE]
Activity (Plasmodium yoelii [19]): inactive | Tmax (Rattus norvegicus [20]): 0.91 h | beta t1/2 (Rattus norvegicus [21]): 9.5 h | AUCt (Rattus norvegicus [22]): 30.147 ng·h/mL | IC50 (Plasma): 3.95 µg/mL (≈ 12.3 µM) | inhibition (Plasma): Dose-dependent effect | Vd (Rattus norvegicus [23]): 1.49 L | MST (Plasmodium yoelii [24]): 16.5 days | Activity (Plasmodium yoelii [25]): inactive | CL/F [26]: 2.5 mL/min

CC(C)(C)n1nnnc1C(NCCCNc1ccnc2cc(Cl)ccc12)c1ccc(Cl)cc1 (stereo not given)
Ratio IC50 (Plasmodium falciparum [1]): 9.2 | IC50 (Plasma): 5.95 µg/mL (≈ 12.3 µM) | inhibition (Plasma): Dose-dependent effect | Ratio CC50/IC50 [2]: 248.65 | IC50 (Plasmodium falciparum [3]): 81.4 nM | IC50 (Plasmodium falciparum [4]): 754 nM

CC(C)(C)n1nnnc1C(Nc1ccc(Nc2ccnc3cc(Cl)ccc23)cc1)c1cccc2ccccc12 (stereo not given)
Ratio IC50 (Plasmodium falciparum [1]): 2.7 | Ratio IC50 (Plasmodium falciparum [27]): 3.38 | IC50 (Plasma): 5.12 µg/mL (≈ 9.59 µM) | inhibition (Plasma): Dose-dependent effect | Activity (Plasmodium yoelii [5]): 57.03% | Ratio CC50/IC50 [2]: 3815.38 | Activity (Plasmodium yoelii [6]): inactive | MST (Plasmodium yoelii [7]): 12 days | IC50 (Plasmodium falciparum [3]): 28 nM | Activity (Plasmodium yoelii [8]): inactive | IC50 (Plasmodium falciparum [4]): 77.8 nM

CC(C)(C)n1nnnc1C(Nc1ccc(Nc2ccnc3cc(Cl)ccc23)cc1)c1ccccc1 (stereo not given)
IC50 (Plasma): 5.55 µg/mL (≈ 11.5 µM) | inhibition (Plasma): Dose-dependent effect | Ratio CC50/IC50 [2]: 2383.47 | IC50 (Plasmodium falciparum [3]): 59.6 nM | IC50 (Plasmodium falciparum [4]): > 1020 nM
